Test results taken from article PMC10035389, “Safety, Tolerability, and Pharmacokinetics of TAK-931, a Cell Division Cycle 7 Inhibitor, in Patients with Advanced Solid Tumors: A Phase I First-in-Human Study” (Cancer Research Communications, 2022).

System: skin phosphorylated MCM2 (pMCM2; a CDC7 substrate)
Experiment: pMCM2 IHC (H-score) in skin punch biopsies
Type: in vivo, human
From the text: The primary objectives were to evaluate safety, tolerability, and to identify the MTD of TAK-931. Secondary objectives were to characterize the pharmacokinetics of TAK-931, assess pharmacodynamic effects of TAK-931 by measuring basal and postdose levels of skin phosphorylated MCM2 (pMCM2; a CDC7 substrate), and assess preliminary clinical activity of TAK-931. An exploratory objective was to assess the pharmacodynamic effect of TAK-931 in fresh tumor biopsies after multiple doses of TAK-931 that were considered to have biological effect.
DLTs included: cycle 1 grade ≥3 hematologic and non-hematologic events or grade 2 non-hematologic events considered by the investigator to be TAK-931-related, grade 2 ejection fraction decrease, >2 weeks delay in initiating cycle 2 (1 week for schedules D and E), and >50% TAK-931 dose reduction in cycle 1 due to treatment-related adverse events (AEs; see Supplementary Materials and Methods for full DLT criteria). Toxicity was evaluated by NCI Common Terminology Criteria for Adverse Events (version 4.03). Tumor response was measured using the RECIST (version 1.1) ([16]). Serial blood samples for pharmacokinetic analysis were collected during cycle 1 on days 1 and 7 (schedule B), 1 and 8 (schedules A and D), or 1 and 9 (schedule E). Pharmacokinetic parameters were estimated from concentration–time profiles using noncompartmental methods with WinNonlin® Phoenix™ version 8.1 (Certara, Princeton, NJ). pMCM2 was detected semiquantitatively by IHC of histologic sections of formalin-fixed, paraffin-embedded skin and tumor biopsies using anti-pMCM2 (3378-1, Epitomics Inc.; ref. [15]). Quantitative image analysis determined pMCM2 levels as “histologic score nuclei (H-score).” Skin punch biopsies (2–4 mm) were obtained during screening or predose on cycle 1, day 1 and for patients in schedules A, B, and D, postdose on any drug dosing day after 3 consecutive dosing days in cycle 1. A postdose skin biopsy was obtained on day 9 in schedule E. Fresh tumor biopsy pairs were collected predose and postdose on any dosing day after the completion of 3 consecutive dosing days in cycle 1 from patients who received doses considered to have biological effect.
The safety population included patients who received ≥1 dose of TAK-931. The pharmacodynamic-evaluable population comprised patients from the safety population with a baseline and ≥1 additional postbaseline biopsy sample that was suitable for pMCM2 analysis. The pharmacokinetic-evaluable population included patients with sufficient dosing and TAK-931 concentration–time data to estimate pharmacokinetic parameters. The response-evaluable population included patients in the safety population with measurable disease at baseline and ≥1 postbaseline response assessment.

With `Cc1[nH]ncc1-c1cc2nc([C@@H]3CC4CCN3CC4)[nH]c(=O)c2s1` [TAK-931, simurosertib] the “Skin pMCM2 Mean H-score (StDev), Cycle 1, day 8” value (“Skin pMCM2 Mean H-score (StDev)” below) (Schedule A (30 mg), n = 3, baseline mean H-score 18.47 (8.45)) was 10.93 (6.57), the “% of pMCM2 inhibition (Change from baseline), skin” value (Schedule A (30 mg), n = 3, cycle 1, day 8) was 40.8% and the “Skin pMCM2 Mean H-score (StDev)” value (Schedule A (40 mg), n = 3, baseline mean H-score 19.53 (3.78)) was 12.87 (12.19). The “% of pMCM2 inhibition (Change from baseline), skin” value (Schedule A (40 mg), n = 3, cycle 1, day 8) was 34.1%, the “Skin pMCM2 Mean H-score (StDev)” value (Schedule A (50 mg), n = 14, baseline mean H-score 10.50 (5.85)) was 3.76 (5.42) and the “% of pMCM2 inhibition (Change from baseline), skin” value (Schedule A (50 mg), n = 14, cycle 1, day 8) was 64.2%. The “Skin pMCM2 Mean H-score (StDev)” value (Schedule A (60 mg), n = 3, baseline mean H-score 10.93 (1.94)) was 1.00 (0.60), the “% of pMCM2 inhibition (Change from baseline), skin” value (Schedule A (60 mg), n = 3, cycle 1, day 8) was 90.9% and the “Skin pMCM2 Mean H-score (StDev)” value (Schedule B (60 mg), n = 3, baseline mean H-score 4.40 (2.96)) was 0.67 (0.46). For the same compound, the “Skin pMCM2 Mean H-score (StDev)” value (Schedule B (80 mg), n = 9, baseline mean H-score 12.72 (2.02)) was 3.54 (6.19), the “% of pMCM2 inhibition (Change from baseline), skin” value (Schedule B (80 mg), n = 9, cycle 1, day 8) was 72.2% and the “% of pMCM2 inhibition (Change from baseline), skin” value (Schedule D (20 mg), baseline n = 6, cycle 1, day 8 n = 4) was 77.1%. For the same compound, the “Skin pMCM2 Mean H-score (StDev)” value (Schedule D (20 mg), baseline n = 6, cycle 1, day 8 n = 4, baseline mean H-score 22.05 (24.52)) was 5.05 (2.90), the “Skin pMCM2 Mean H-score (StDev)” value (Schedule D (30 mg), n = 6, baseline mean H-score 33.32 (23.43)) was 6.43 (5.17) and the “% of pMCM2 inhibition (Change from baseline), skin” value (Schedule D (30 mg), n = 6, cycle 1, day 8) was 80.7%.
